Measurements: patent US10793625B2, “Compositions and methods for treating or preventing osteoarthritis” (THE JOHNS HOPKINS UNIVERSITY, priority 2012, dated 2020)
Read-outs that look alike come from different tables or passages of the source.

Assays:
[1] = tested on: Nestin-Cre™ER::Rosa26-LacZ^fl/fl mice; assay: β-gal and osteocalcin co-staining in subchondral bone of Nestin-CreER::Rosa26-LacZfl/fl ACLT mice; format: in vivo, mouse
Text: We purchased Nestin-Cre™ER and (ROSA)26Sortm1Sor/J mice from the Jackson Laboratory. Floxed type II TGF-β receptor (TβRII^fl/fl) mice were obtained from Dr. Moses' lab. Nestin-Cre™ER mice were crossed with TβRII^fl/fl mice. The offspring were intercrossed to generate the following offspring: nestin-Cre™ER::TβRII^fl/fl, in which Cre was fused with a mutated estrogen receptor that could be activated by Tamoxifen. We determined the genotype of transgenic mice by PCR analyses of genomic DNA isolated from mouse tails. Genotyping for the Cre transgene was performed by PCR with the primers Cre 5′ (5′-CAAATAGCCCTGGCAGAT-3′) and Cre 3′ (5′-[…]-3′). The loxP TβRII allele was identified with the primerslox1F (5′-[…]-3′) and lox1R (5′-[…]-3′). We generated Nestin-Cre™ER::Rosa26-LacZ^fl/fl mice by crossing nestin-Cre™ER mice with mice homozygous with a loxP-flanked DNA STOP sequence preventing expression of the downstream lacZ gene. The offspring were then intercrossed to generate the following genotype: Nestin-Cre™ER::Rosa26-LacZ^fl/fl. We performed sham or ACLT operations on two month-old, male WT, Nestin-Cre™ER::TβRII^fl/fl and Nestin-Cre™ER::Rosa26-lacZ^fl/fl male mice. […]
Histochemistry, Immunohistochemistry and Histomorphometry. […] We calculated OARSI scores as previously described.

9-month-old ACLT mice = assay: ACLT or sham surgery in 9 month old mice treated with TβRI inhibitor; format: in vivo, mouse; settings: for articular cartilage degeneration / subchondral bone structure / architecture: 1 mg/kg daily for 1 month
Description: (FIG. 12A) Safranin O staining of tibia articular cartilage and subchondral bone of mice sacrificed at 0, 14, 30, and 60 days post sham or ACLT surgery and treated with either vehicle or TβRI inhibitor (SB505124-1 mg/kg) daily beginning 3 days post-surgery for 1 month. For those mice analyzed at earlier time points, the mice were treated until sacrificed. (FIG. 12B) 3D μCT images of subchondral bone of knee joints. The sham operated mice maintained articular cartilage and subchondral bone structure throughout the duration of the experiment. […] (FIG. 12C) OARSI score based on the histology analysis. Quantitative analysis of structural parameters by μCT analysis: (FIG. 12D) thickness of subchondral bone plate (SBP) and (FIG. 12E) trabecular pattern factor (Tb. Pf). […] Ve-Sham: vehicle treated in sham operated; In-Sham: TβRI inhibitor treat in sham operated; Ve-ACLT: vehicle treated in ACLT operated; In-ACLT: TβRI inhibitor treated in ACLT operated mice.
Histochemistry, Immunohistochemistry and Histomorphometry. […] Immunostaining was performed using standard protocol. […] We calculated OARSI scores as previously described.
Micro-Computed Tomography (μCT). […] Th: trabecular thickness, Tb. Sp: trabecular separation, SMI, Conn. Dn: connectivity density, and Tb.Pf: trabecular pattern factor.

[2] = tested on: Dunkin Hartley guinea pig spontaneous osteoarthritis; assay: Dunkin Hartley guinea pig spontaneous osteoarthritis, MRI of knee joints; format: in vivo; settings: injected for 3 months
Text: (FIG. 16A) MRI scanning of knee joints of the guinea pig with different dose of TβRI inhibitor or vehicle treatment for 3 months. Red arrows pointing the bone marrow lesions in the subchondral bone of distal femur (upper row) or tibiae plateau (lower row). (FIG. 16B) Quantitative analysis of the bone marrow lesion intensity.

active TGF-β1 = settings: injection; cited from earlier work
MSCs = assay: Western blot of Smad phosphorylation in cultured MSCs treated with recombinant hTGF-β1; format: cell-based, mouse
Description: Cell Culture. We obtained green fluorescent protein (GFP)-labeled mouse adult MSCs from the Texas A&M Health Science Center College of Medicine Institute (College Station). We maintained cells (Passage 3-5) Iscove's modified Dulbecco's medium (Invitrogen) supplemented with 10% fetal calf serum (Atlanta Biologicals), 10% horse serum (Thermo Scientific), and (% penicillin-streptomycin (Mediatech). We cultured MSCs in 6-well plates at a density of 1.8×10^5 cells per well, then starved them for 6 h followed by TGF-β1 (R&D Systems) and TβRI inhibitor (SB-505124) (Sigma-Aldrich) treatment as indicated.
ELISA and Western Blot, We determined the concentration of active TGF-β1 in the conditioned media by the ELISA Development kit (R&D Systems) according to the manufacturer's instructions. Western blot analyses were conducted on the protein of lysates from in vitro cultured MSCs. The cell lysates were centrifuged and the supernatants were separated by SDS-PAGE and blotted on polyvinylidene fluoride membrane (Bio-Rad Laboratories). Following incubation in specific antibodies, we detected proteins using an enhanced chemiluminescence kit (Amersham Biosciences). […]

[3] = 9 month old ACLT mice, listed as WI inhibitor, 1 mg/kg

## Cc1cccc(-c2[nH]c(C(C)(C)C)nc2-c2ccc3c(c2)OCO3)n1 [TβRI inhibitor]
[1]
  distribution of β-gal+ MSC lineage cells in subchondral bone: primarily distributed on bone surface
9-month-old ACLT mice; 9 month old ACLT mice, 1 mg/kg
  articular cartilage degeneration: attenuated the articular cartilage degeneration
  subchondral bone structure / architecture: improved subchondral bone architecture
9-month-old ACLT mice; [3]
  articular cartilage degeneration: attenuated
  subchondral bone structure / architecture: improved
9-month-old ACLT mice; 9 month old ACLT mice, 1 and 2 months post ACLT, relative to ACLT-Vehicle
  trabecular pattern factor (Tb. Pf), μCT: decreased the trabecular pattern factor
9-month-old ACLT mice; 9 month old ACLT mice, 1 month post-surgery, compared to sham-operated controls
  thickness of subchondral bone plate (SBP), μCT: remained normal
9-month-old ACLT mice; sham-operated 9 month old mice, 1 mg/kg
  effect on articular cartilage: did not have significant effect on articular cartilage
[2]
  subchondral bone marrow lesions in knee joints: significantly reduced
Active TGF-β1
  uncoupled bone formation induced by high concentrations of active TGF-β1: rescue uncoupled bone formation
ACLT mice; 1 mg kg^−1
  subchondral bone tissue volume (TV), μCT: normalization of subchondral bone TV
  thickness of subchondral bone plate (SBP), μCT: maintenance of the thickness of SBP
  trabecular pattern factor (Tb. Pf), μCT: decrease in Tb. Pf
ACLT mice; 0.1 and 0.5 mg/kg, 2 months after ACLT
  degeneration of articular cartilage: nor prevent the degeneration of articular cartilage
ACLT mice; 1 month post ACLT
  contrast signal in MRI perfusion analysis: the increase was prevented
ACLT mice; 2 weeks post-surgery
  expression of ALK5 in subchondral bone: the increase was inhibited
  pSmad2/3+ cells in subchondral bone: the increase was prevented
ACLT mice; 2 weeks post-surgery, relative to sham
  expression level of ALK1 in subchondral bone: remained unchanged
ACLT mice; 2 weeks post-surgery, relative to sham controls
  number of pSmad1+ cells in subchondral bone: remained relatively stable
ACLT mice; 2.5 and 5 mg/kg daily i.p. for 30 days, ACLT mice
  subchondral bone structure: could rescue the bone structure
ACLT mice; 14 and 30 days, immunostaining
  co-localization of osterix+ osteoprogenitors and TRAP+ osteoclasts: co-localization of osterix and TRAP was seen
ACLT mice; 30 days post-surgery, immunostaining
  increase of nestin+ MSCs in subchondral bone marrow: prevented
ACLT mice; ACLT mice
  CD31+ endothelial progenitors in subchondral bone: reduced
ACLT mice; all doses, 30 and 60 days post ACLT
  bone volume/tissue volume (BV/TV), μCT: did not change BV/TV
ACLT mice; high doses 1, 2.5 and 5 mg/kg
  subchondral bone tissue volume (TV), μCT: inhibited the increase in TV
  trabecular pattern factor (Tb. Pf), μCT: decreased Tb. Pf
ACLT mice; higher concentrations, beginning at 1 mg kg^−1
  subchondral bone structure: improved subchondral bone structure
ACLT mice; micro-MRI, vs ACLT-vehicle treated mice
  bone marrow lesion in tibial subchondral bone: obviously smaller in size
ACLT mice; one month post ACLT, vs vehicle
  increased number of osterix+ osteoprogenitor clusters in bone marrow: attenuated
ACLT mice; two months post-surgery, Catwalk system
  gait analysis: disparity of maximum contact time (Maxcontactat %) of the two hind limbs: rescued
ACLT mice; vs vehicle treated ACLT mice
  OARSI score of articular cartilage: protective effect

## TGF-β1: recombinant hTGF-β1 (R&D Systems) used to treat cultured MSCs
MSCs
  dose giving maximal increase of phosphorylated Smad1/5/8: 5 ng/mL
MSCs; low concentrations
  phosphorylation of Smad2/3 and Smad1/5/8: stimulated phosphorylation
